Assay results as given in patent publication US10000452B1, “Quinolone-based compounds, formulations, and uses thereof” (University of South Florida, priority 2016, dated 2018).
≈ marks a conversion by molar mass, not a printed value. Read-outs that look alike come from different tables or passages of the source.

Experiments:
[1] = tested on: J774 mammalian cells; assay: cytotoxicity to J774 cells; type: cell-based; settings: Mus musculus
Method: This allowed a simplified method for comparing the different assays being simultaneously run. Additionally, each compound was also tested for cytotoxicity using mammalian J774 cell lines in a 96-well plate format.^12-14, 16

[2] = tested on: malarial strain TM90-C2B (mefloquine, chloroquine, atovaquone, and pyrimethamine-resistant); assay: microbe, parasite or virus in culture; type: cell-based, P. falciparum; settings: for EC50: Plasmodium falciparum, TM90, read-out: EC50 TM90-C2B (nM); for RI: RI = EC50 TM90-C2B/EC50 W2
From the text: Ideally, the RI of a compound should lie between 0.3 and 3.0 in order to avoid rapidly inducing resistance in the parasite. […]

[3] = tested on: Pb-infected mice; assay: in vivo efficacy scouting assay against blood stages; parameters: species or system P. berghei; mice; settings: for % Inhibition Day 6 PI: vs untreated animals
Method: The screening involved a single oral 50 mg/kg dose 1 day post infection (PI) and an assessment of parasitemia on days 3 PI and 6 PI (Table 6).
The screening was performed by treating two infected mice with a single 50 mg/kg oral dose of test compound suspended in PEG400 on day 1 postexposure (PE) followed by assessing parasitemia on days 3 and 6 PE.

[4] = tested on: malarial strain W2 (pyrimethamine and chloroquine-resistant); assay: in vitro antimalarial activity against multidrug resistant strain W2; type: cell-based, P. falciparum; settings: Plasmodium falciparum, read-out: EC50 W2 (nM)
[5] = tested on: P. berghei sporozoites expressing luciferase; assay: in vitro liver stage activity, luciferase sporozoites infecting HEPG2 hepatoma cells; type: cell-based; settings: Plasmodium berghei
[6] = lipophilicity log D at pH 7.4; type: physicochemical; settings: octanol/water
From the text: (§1) Furthermore, to profile the properties of the piperazinyl-4(1H)-quinolones, and to identify potential limitations, aqueous solubility and lipophilicity log D were experimentally determined via LC/MS-based assays as described by the Manetsch laboratory previously^8,10,31,32 (Tables 9-12). Encouragingly, the piperazinyl-4(1H)-quinolones were much more soluble than the previously described phenoxyethoxy-4(1H)-quinolone analogues.^19 As expected, the solubility of all compounds was affected by pH, with better solubility under more acidic conditions.
(§2) In parallel to testing the compounds for in vitro antimalarial activity, a limited structure-property relationship (SPR) study focusing on log D and aqueous solubility was conducted to assess potential physiochemical liabilities (FIG. 22). […] For these reasons, physicochemical properties were not strongly considered as selection criteria for in vivo efficacy studies.

[7] = aqueous solubility (LC/MS- or HPLC-based assay); type: physicochemical
From the text: as §1, §2

[8] = aqueous medium, pH 2, simulated gastric fluid, pH 2.0, read-out: Solubility pH 2.0
[9] = aqueous medium, pH 6.5, aqueous buffer, pH 6.5, read-out: Solubility pH 6.5
[10] = aqueous solution (buffer not named), pH 2, simulated gastric fluid, pH 2.0, read-out: Solubility pH 2.0
[11] = aqueous solution (buffer not named), pH 6.5, aqueous buffer, pH 6.5, read-out: Solubility pH 6.5
[12] = single oral 50 mg/kg dose 1 day PI
[13] = aqueous solution, pH 2, simulated gastric fluid, pH 2.0, read-out: Solubility pH 2.0
[14] = aqueous solution, pH 6.5, aqueous buffer, pH 6.5, read-out: Solubility pH 6.5

| SMILES | EC50 ([1]; J774, read-out: EC50 J774) [µM] | EC50 [2] [nM] | RI [2] | % inhibition on day 6 PE ([3]; Example 2: two mice, single 50 mg/kg oral dose in PEG400 on day 1 PE) | EC50 [4] [nM] | EC50 ([5]; HEPG2 cells) [pM] | EC50 ([1]; J774, read-out: EC50 J774 (μM)) [µM] | chromatographic logD [6] | solubility [7, 8] [µM] | solubility [7, 9] [µM] | solubility [7, 10] [µM] | solubility [7, 11] [µM] | activities in these scout assays ([3]; single oral 50 mg/kg dose 1 day PI, result in words) | % Inhibition Day 6 PI [3, 12] | solubility [7, 13] [µM] | solubility [7, 14] [µM] | EC50 ([5]; HepG2, text values printed in pM) [pM] |
| --- | --- | --- | --- | --- | --- | --- | --- | --- | --- | --- | --- | --- | --- | --- | --- | --- | --- |
| CCCCc1cc2c(=O)c(CC)c[nH]c2cc1OCCOc1ccccc1 [Compound 6ae, 6-Butyl-3-ethyl-7-(2-phenoxyethoxy)quinolin-4(1H)-one] | 0.36 | 1.92 | 4.36 | lack of significant parasitemia reduction | 0.44 | 2650 |  |  |  |  |  |  |  |  |  |  |  |
| COC(=O)c1c[nH]c2cc(CCN3CCN(c4ccccc4)CC3)ccc2c1=O [Compound 8ac, Methyl 4-oxo-7-(2-(4-phenylpiperazin-1-yl)ethyl)-1,4-dihydroquinoline-3-carboxylate] |  | 1500 | 58.6 |  | 25.6 |  | > 20 | 5.11 | ≥ 80 | ≥ 80 |  |  |  |  |  |  |  |
| COC(=O)c1c[nH]c2cc(CCN3CCN(Cc4ccccc4)CC3)ccc2c1=O [Compound 8ad, Methyl 7-(2-(4-benzylpiperazin-1-yl)ethyl)-4-oxo-1,4-dihydroquinoline-3-carboxylate] |  | 6170 |  |  | 116 | 157000 | > 20 | 1.72 | ≥ 80 | ≥ 80 |  |  |  |  |  |  |  |
| COC(=O)c1c[nH]c2cc(CCN3CCN(Cc4ccc(OC)cc4)CC3)ccc2c1=O [Compound 8ae, Methyl 7-(2-(4-(4-methoxybenzyl)piperazin-1-yl)ethyl)-4-oxo-1,4-dihydroquinoline-3-carboxylate] |  |  | >495 |  | 11.6 |  | > 20 | 1.68 | ≥ 80 | ≥ 80 |  |  |  |  |  |  |  |
| COC(=O)c1c[nH]c2ccc(CN3CCN(c4ccccc4)CC3)cc2c1=O [Compound 8af, Methyl 4-oxo-6-((4-phenylpiperazin-1-yl)methyl)-1,4-dihydroquinoline-3-carboxylate] |  | 3200 | 21.2 |  | 151 | 90500 | > 20 | 2.03 |  |  | ≥ 80 | 20 to 39.9 (≈ 7.55 to 15.1 µg/mL) |  |  |  |  |  |
| COC(=O)c1c[nH]c2ccc(CN3CCN(c4ccc(F)cc4)CC3)cc2c1=O [Compound 8ah, Methyl 6-((4-(4-fluorophenyl)piperazin-1-yl)methyl)-4-oxo-1,4-dihydroquinoline-3-carboxylate] |  | 2900 | 27.4 |  | 106 |  | > 20 | 2.17 |  |  | ≥ 80 | ≥ 80 |  |  |  |  |  |
| COC(=O)c1c[nH]c2ccc(CN3CCN(c4ccc(C(F)(F)F)cc4)CC3)cc2c1=O [Compound 8ai, Methyl 4-oxo-6-((4-(4-(trifluoromethyl)phenyl)piperazin-1-yl)methyl)-1,4-dihydroquinoline-3-carboxylate] |  | 2900 | 64.2 |  | 45.2 | 85000 | > 20 | 3.01 |  |  | ≥ 80 | 1 to 19.9 (≈ 0.445 to 8.86 µg/mL) |  |  |  |  |  |
| O=c1c(Cl)c[nH]c2cc(CN3CCN(c4ccc(F)cc4)CC3)ccc12 [Compound 8al, 3-Chloro-7-((4-(4-fluorophenyl)piperazin-1-yl)methyl)quinolin-4(1H)-one] |  | 2290 |  |  | 1060 |  | > 20 | 2.57 |  |  | ≥ 80 | 40 to 59.9 (≈ 14.9 to 22.3 µg/mL) | excellent activities | 71.9% |  |  |  |
| Cc1cc(=O)c2ccc(CN3CCN(c4ccc(F)cc4)CC3)cc2[nH]1 [Compound 8am, 7-((4-(4-Fluorophenyl)piperazin-1-yl)methyl)-2-methylquinolin-4(1H)-one] |  | 1450 | 1.19 |  | 1220 |  | > 20 | 2.44 |  |  | ≥ 80 | ≥ 80 |  |  |  |  |  |
| COC(=O)c1c[nH]c2cc(N3CCN(c4ccccc4)CC3)c(C)cc2c1=O [Compound 8c, Methyl 6-methyl-4-oxo-7-(4-phenylpiperazin-1-yl)-1,4-dihydroquinoline-3-carboxylate] |  | 1110 |  |  | 45.5 |  | 16.7 | 2.31 | ≥ 80 | 40 to 59.9 (≈ 15.1 to 22.6 µg/mL) |  |  |  | little to moderate protection |  |  |  |
| COC(=O)c1c[nH]c2cc(N3CCN(c4ccccc4)CC3)c(OC)cc2c1=O [Compound 8d, Methyl 6-methoxy-4-oxo-7-(4-phenylpiperazin-1-yl)-1,4-dihydroquinoline-3-carboxylate] |  |  |  |  | 37.2 |  | 16.8 | 2.64 | ≥ 80 | 1 to 19.9 (≈ 0.393 to 7.83 µg/mL) |  |  |  | little to moderate protection |  |  |  |
| COC(=O)c1c[nH]c2cc(N3CCN(c4ccc(OC)cc4)CC3)ccc2c1=O [Compound 8e, Methyl 7-(4-(4-methoxyphenyl)piperazin-1-yl)-4-oxo-1,4-dihydroquinoline-3-carboxylate] |  | 154 | 19.8 |  | 7.76 |  | > 20 | 2.44 |  |  |  |  |  |  | 40 to 59.9 (≈ 15.7 to 23.6 µg/mL) | 20 to 39.9 (≈ 7.87 to 15.7 µg/mL) |  |
| COC(=O)c1c[nH]c2cc(N3CCN(c4ccc(OC)cc4)CC3)c(OC)cc2c1=O [Compound 8f, Methyl 6-methoxy-7-(4-(4-methoxyphenyl)piperazin-1-yl)-4-oxo-1,4-dihydroquinoline-3-carboxylate] |  | 1980 | 46.2 |  | 42.9 | > 100000 | > 20 | 2.48 |  |  |  |  |  |  | 60 to 79.9 (≈ 25.4 to 33.8 µg/mL) | 20 to 39.9 (≈ 8.47 to 16.9 µg/mL) |  |
| COC(=O)c1c[nH]c2cc(N3CCN(Cc4ccccc4)CC3)c(OC)cc2c1=O [Compound 8h, Methyl 7-(4-benzylpiperazin-1-yl)-6-methoxy-4-oxo-1,4-dihydroquinoline-3-carboxylate] |  |  |  |  | 63.5 |  | 12.4 | 2.03 | 60 to 79.9 (≈ 24.4 to 32.6 µg/mL) | 40 to 59.9 (≈ 16.3 to 24.4 µg/mL) |  |  |  |  |  |  |  |
| COC(=O)c1c[nH]c2cc(N3CCN(Cc4ccc(OC)cc4)CC3)ccc2c1=O [Compound 8i, Methyl 7-(4-(4-methoxybenzyl)piperazin-1-yl)-4-oxo-1,4-dihydroquinoline-3-carboxylate] |  | 1340 | 67.3 |  | 19.9 |  |  | 2.08 | ≥ 80 | 40 to 59.9 (≈ 16.3 to 24.4 µg/mL) |  |  |  |  |  |  |  |
| COC(=O)c1c[nH]c2cc(CN3CCN(Cc4ccc5c(c4)OCO5)CC3)ccc2c1=O [Compound 8m, Methyl 7-((4-(benzo[d][1,3]dioxol-5-ylmethyl)piperazin-1-yl)methyl)-4-oxo-1,4-dihydroquinoline-3-carboxylate] |  | > 5740 | >36.6 |  | 157 |  | > 20 | 0.87 | ≥ 80 | ≥ 80 |  |  |  |  |  |  |  |
| COC(=O)c1c[nH]c2cc(CN3CCN(c4ccc(OC)cc4)CC3)ccc2c1=O [Compound 8n, Methyl 7-((4-(4-methoxyphenyl)piperazin-1-yl)methyl)-4-oxo-1,4-dihydroquinoline-3-carboxylate] |  | 222 |  |  | 3.56 | 123 |  | 2.11 |  |  |  |  |  | little to moderate protection | ≥ 80 | 40 to 59.9 (≈ 16.3 to 24.4 µg/mL) | 123 |
| COC(=O)c1c[nH]c2cc(CN3CCN(Cc4ccc(OC)cc4)CC3)c(C)cc2c1=O [Compound 8s, Methyl 7-((4-(4-methoxybenzyl)piperazin-1-yl)methyl)-6-methyl-4-oxo-1,4-dihydroquinoline-3-carboxylate] |  | 1020 | 426 |  | 2.4 |  | > 20 | 2.03 | ≥ 80 | ≥ 80 |  |  |  | little to moderate protection |  |  |  |
| COC(=O)c1c[nH]c2cc(CN3CCN(Cc4ccc(OC)cc4)CC3)c(OC)cc2c1=O [Compound 8y, Methyl 6-methoxy-7-((4-(4-methoxybenzyl)piperazin-1-yl)methyl)-4-oxo-1,4-dihydroquinoline-3-carboxylate] |  | 2750 |  |  | 9.97 | 52400 | > 20 |  |  |  |  |  |  | little to moderate protection |  |  |  |
